From patent publication US4145557A, “(Phenoxyphenyl) alkyl acetates, propionates, and carbamates” (Eli Lilly and Company, priority 1977, dated 1979)
Where a name gives a salt, the structure may show the parent alone. Read-outs that look alike come from different tables or passages of the source.

Legend:
[1] = tested on: ultraviolet erythema in guinea pigs; assay: Erythema blocking assay (anti-inflammatory activity, ultraviolet erythema, oral); format: in vivo, Albino guinea pigs; conditions: Cavia porcellus, read-out: Erythema Blocking Assay Oral ED50
Method: Various compounds within the scope of this invention were tested for anti-inflammatory activity in an erythema blocking assay which involved the following test procedure.
A modification of the Winder et al. (1958) method [Winder, C. V., Wax, J., Burr, V. and Posiere, C. E.: "A Study of Pharmacological Influences on Ultraviolet Erythema in Guinea Pigs", Arch. Int. Pharmacodyn., 116, 261, 1958] was used to measure anti-inflammatory activity of these compounds. Albino guinea pigs of either sex weighing 225-300 grams were shaved on the back and chemically (NAIR®, Lotion Hair Remover, Carter Products, N. Y., N. Y.) depitated, 18-20 hours before exposure to ultraviolet light. The animals were fasted overnight. Immediately after the guinea pigs were treated with a test compound, gummed notebook paper reinforcements were placed on their backs, and they were exposed to a high intensity ultraviolet light for seven seconds. The ultraviolet light source was a Hanovia Lamp (Kromayer-Model 10) which was placed in contact with the skin of the guinea pig's back. After exposure, the reinforcements were removed and their backs wiped clean with a water soaked gauze sponge. The unexposed area under the reinforcements provided an area of contrast for grading the erythema. The animals were randomized and placed in clear plastic partitioned holders 10 × 20 cm. wide and 15 cm. high. Beginning one hour after exposure and thereafter at half-hour intervals for another one and one-half hours, the degree of resulting erythema was graded by an arbitrary scoring system based upon the degree of contrast and redness formed. Anti-inflammatory agents delay the development of the erythema and therefore have their greatest effect at the initial grading periods. Therefore, the scores were weighed by a factor of 4, 3, 2, and 1 at the 1.0-, 1.5-, 2.0-, and 2.5-hour scoring times, respectively. The erythema was graded as follows:
Score Appearance of Exposed Area
______________________________________
0 No redness and no contrast
1 Slight redness with a faint reinforcement outline
2 Slight to moderate redness with a distinct outline
3 Marked redness with a distinct circular outline
Total scores from each treatment group of five or six guinea pigs were compared to the control treatment and the percent inhibition calculated as follows:
100 × Control - Treatment/Control = Percent Inhibition
Test compounds were prepared in a suspension of 1 percent methylcellulose in water and administered orally. Guinea pigs were treated orally with 1.0 cc./kg. of the suspensions. Control animals received 1.0 cc./kg. of a 1 percent methylcellulose suspension. The dose that produces a 50 percent inhibition of the erythemic response (ED50) was calculated. The ED50 results in (mg./kg.) are recorded in the following table: […]

[2] = tested on: acetic acid-induced writhing in mice; assay: Analgesic writhing test (inhibition of acetic acid-induced writhing); format: in vivo, Standard strain albino male mice; conditions: Mus musculus, sc, read-out: Analgesic Writhing Test Subcutaneous ED50
Method: A method similar to that reported by Koster, R., et al., "Acetic Acid for Analgesic Screening" Fed.
Standard strain albino male mice, weighing 16-18 grams, were administered the treatments either subcutaneously or by gastric lavage. At various times after treatment, writhing was induced by the intraperitoneal administration of 60 mg./kg. of acetic acid (0.6 percent). Each treatment group consisted of 6 mice. The total number of writhes for the treatment group were counted in a 10-minute observation period starting 5 minutes after the acetic acid administration. The treatment totals were compared to controls and a percent inhibition calculated as follows:
Percent Inhibition = 100 - (Treatment total/Control Total × 100)
The ED50 values in the table which follows represents the doses in mg. of compound/kg. of body weight which will produce a 50 percent inhibition of the frequency of writhing.

pK'a determination = format: physicochemical
[3] = oral, guinea pigs, 50 percent inhibition of erythemic response, single dose in 1 percent methylcellulose, scored 1.0-2.5 hours
[4] = subcutaneous, mice, 50 percent inhibition of frequency of writhing, 60 mg./kg. acetic acid intraperitoneal

pKa (pK'a determination)	SMILES	ED50 [1, 3] [mg/kg]	other results
	CNCC(C)c1cccc(Oc2ccccc2)c1 (stereo not drawn) [drawing 18]	1	
	CC(C)=CCN(C)CC(C)c1cccc(Oc2ccccc2)c1 (stereo not drawn) [drawing 26]	5	
	CC(CN(C)C)c1cccc(Oc2ccccc2)c1 (stereo not drawn) [drawing 19]	8	
	CC(CN(C)CC1CC1)c1cccc(Oc2ccccc2)c1 (stereo not drawn) [drawing 23]	3	
	CC(CN)c1cccc(Oc2ccccc2)c1 (stereo not drawn) [drawing 42]		ED50 [2, 4]: 20 mg/kg
	CC(CN(C)C1CC1)c1cccc(Oc2ccccc2)c1 (stereo not drawn) [drawing 22]	3	
	CC(CCN)c1cccc(Oc2ccccc2)c1 (stereo not drawn) [drawing 29]	2	
	CC(C(=O)NCC(=O)O)c1cccc(Oc2ccccc2)c1 (stereo not drawn)	5	
	CNC(=O)OCC(C)c1cccc(Oc2ccccc2)c1 (stereo not drawn)	40	
	CC(=O)Oc1ccccc1C(=O)O [A.S.A., reference compound]		ED50 [2]: 20 mg/kg; ED50 ([1]; po): 50 mg/kg
	CCC(CNC)c1cccc(Oc2ccccc2)c1 (stereo not drawn)		ED50 [2, 4]: 20 mg/kg
	CC(CO)c1cccc(Oc2ccccc2)c1 (stereo not drawn)	2	
	CC(CNCCc1ccccc1)c1cccc(Oc2ccccc2)c1 (stereo not drawn)	15	
	CC(CN(C)CCc1ccccc1)c1cccc(Oc2ccccc2)c1 (stereo not drawn) [drawing 28]	5	
	CC(C(N)=O)c1cccc(Oc2ccccc2)c1 (stereo not drawn)	3	
8.3	CC(CN(C)CC1CC1)c1cccc(Oc2ccccc2)c1 (stereo not drawn) [N-Methyl-N-cyclopropylmethyl-2-(3-phenoxyphenyl)propylamine hydrochloride]		
7.7	CC(CN(C)CCc1ccccc1)c1cccc(Oc2ccccc2)c1 (stereo not drawn) [N-Methyl-N-(2-phenylethyl)-2-(3-phenoxyphenyl)propylamine hydrochloride]		
8.5	C=CCNCC(C)c1cccc(Oc2ccccc2)c1 (stereo not drawn) [N-Allyl-2-(3-phenoxyphenyl)propylamine hydrochloride]		
	CCC(=O)OCC(C)c1cccc(Oc2ccccc2)c1 (stereo not drawn)	10	
10	CNCCC(C)c1cccc(Oc2ccccc2)c1 (stereo not drawn) [N-Methyl-3-(3-phenoxyphenyl)butylamine hydrochloride]		
	CC(CN(C)CC1CC1)c1cccc(Oc2ccccc2)c1 (stereo not drawn) [drawing 46]		ED50 [2, 4]: < 50 mg/kg
	CC(c1cccc(Oc2ccccc2)c1)c1nnn[nH]1 (stereo not drawn) [drawing 36]	10	

pKa (pK'a determination)	SMILES	ED50 [1, 3] [mg/kg]	other results
	CC(C(=O)NO)c1cccc(Oc2ccccc2)c1 (stereo not drawn)	2	
	C=CCNCC(C)c1cccc(Oc2ccccc2)c1 (stereo not drawn) [drawing 24]	10	
7.3	CC(C(=O)O)c1cccc(Oc2ccccc2)c1 (stereo not drawn) [2-(3-phenoxyphenyl)propionic acid]		
	CC(=O)OCC(C)c1cccc(Oc2ccccc2)c1 (stereo not drawn)	8	
10	CC(CCN)c1cccc(Oc2ccccc2)c1 (stereo not drawn) [3-(3-Phenoxyphenyl)butylamine hydrochloride]		
7.6	C=CCN(C)CC(C)c1cccc(Oc2ccccc2)c1 (stereo not drawn) [N-Methyl-N-allyl-2-(3-phenoxyphenyl)propylamine hydrochloride]		
5.8	CC(c1cccc(Oc2ccccc2)c1)c1nnn[nH]1 (stereo not drawn) [5-(α-Methyl-3-phenoxybenzyl)-1H-tetrazole]		
7.9	CC(CNC1CC1)c1cccc(Oc2ccccc2)c1 (stereo not drawn) [N-Cyclopropyl-2-(3-phenoxyphenyl)propylamine hydrochloride]		
6.9	O=C(O)Cc1cccc(Oc2ccccc2)c1 [2-(3-phenoxyphenyl)acetic acid]		
	CNCCC(C)c1cccc(Oc2ccccc2)c1 (stereo not drawn) [drawing 30]	5	
	CN(C)CCc1cccc(Oc2ccccc2)c1 [drawing 41]		ED50 [2]: 35 mg/kg
	CNC(=O)C(C)c1cccc(Oc2ccccc2)c1 (stereo not drawn)	30	
	NCCc1cccc(Oc2ccccc2)c1 [CH2 CH2 NH2 . HCl]	75	ED50 [2]: 4 mg/kg
	CC(CN)c1cccc(Oc2ccccc2)c1 (stereo not drawn) [drawing 17]	1	
	C=CCN(C)CC(C)c1cccc(Oc2ccccc2)c1 (stereo not drawn) [drawing 25]	3	
	CC(CNC1CC1)c1cccc(Oc2ccccc2)c1 (stereo not drawn) [drawing 20]	9	
6.9	CC(CN(C)C1CC1)c1cccc(Oc2ccccc2)c1 (stereo not drawn) [N-Methyl-N-cyclopropyl-2-(3-phenoxyphenyl)propylamine hydrochloride]		
	CC(CNCC1CC1)c1cccc(Oc2ccccc2)c1 (stereo not drawn)	20	
	CNCC(C)c1cccc(Oc2ccccc2)c1 (stereo not drawn) [drawing 43]		ED50 [2, 4]: 20 mg/kg
	CC(C(=O)N(C)C)c1cccc(Oc2ccccc2)c1 (stereo not drawn)	25	
	CC(CN(C)C)c1cccc(Oc2ccccc2)c1 (stereo not drawn) [drawing 44]		ED50 [2, 4]: 10 mg/kg

SMILES	pKa (pK'a determination)	ED50 [1, 3] [mg/kg]	other results
CC(C)=CCN(C)CC(C)c1cccc(Oc2ccccc2)c1 (stereo not drawn) [N-Methyl-N-(3-methylbut-2-enyl)-2-(3-phenoxyphenyl)propylamine hydrochloride]	8.5		
CNCCc1cccc(Oc2ccccc2)c1.Cl [N-Methyl-2-(3-phenoxyphenyl)ethylamine hydrochloride]	9.7		ED50 [2]: 25 mg/kg; ED50 ([1]; po): 10 mg/kg
CN(C)CCc1cccc(Oc2ccccc2)c1.Cl [N,N-Dimethyl-2-(3-phenoxyphenyl)ethylamine hydrochloride]	8.5		ED50 ([1]; po): 7 mg/kg
